Patent US11186618B2, “Dendritic-cell-targeted peptide, fusion peptide utilizing said peptide, and vaccine utilizing said fusion peptide” (The Research Foundation for Microbial Diseases of Osaka …, priority 2016, dated 2021)

Test system: antigen-specific CD8^+ CTLs
Test: IFN-γ production by immune cells of regional lymph nodes, Kras G12D peptide (Test Example 10)
Format: in vivo, mouse
Conditions: 50 μg as G12D-derived peptide with 10 μg CpG oligodeoxynucleotide, subcutaneously into the ears Day 0, lymph node cells Day 7, cultured 24 hours
Protocol: A fusion peptide (G12D-FL4) was prepared by linking the N-terminus of the peptide consisting of the amino acid sequence of FL4 to the C-terminus of a partial peptide of Kras containing G12D mutation (G12D-derived peptide; LVVVGADGV (SEQ ID NO: 42); the 6th to 14th amino acid sequence from the N-terminal side of Kras containing G12D mutation). Specifically, the amino acid sequence of the fusion peptide is [Partial sequence of Kras containing G12D mutation (LVVVGADGV; SEQ ID NO: 42)]-[VSYKAIR; SEQ ID NO: 1]. The production method of the fusion peptide was the same as that of PspA-FL4 except that a DNA molecule encoding the G12D-derived peptide was used.
50 μL of physiological saline containing 50 μg of G12D-FL4 in terms of the G12D-derived peptide amount and 10 μg of CpG oligodeoxynucleotide (K3 type, product name “K3 Et-Free”, product number “CN-65003” manufactured by GeneDesign Inc.) was administered subcutaneously into the ears of 7-week old C57BL/6 mice on Day 0, regional lymph nodes were collected on Day 7 and immune cells were recovered. […]

Substance	induction of antigen-specific CD8+ CTLs (IFN-γ production ability)
LVVVGADGV [G12D-derived peptide, partial peptide of Kras containing G12D mutation, reference compound]	no induction
[Partial sequence of Kras containing G12D mutation (LVVVGADGV; SEQ ID NO: 42)]-[VSYKAIR; SEQ ID NO: 1] (LVVVGADGVVSYKAIR; G12D-derived peptide; Amino acid sequence of motif sequence) [G12D-FL4, fusion peptide of G12D-derived peptide and FL4]	very strong induction
